We go through one compound from patent US20060035317A1, “Effect of treatment with 4,5-dihydroxy-2-cyclopenten-1-one (dhcp) on gene expression and quorum-sensing in bacteria” (priority 2002, published 2006).

Assay [1] has as its system E. coli wild-type strain JM83 (gene expression). Nature of the assay: Primer extension analysis of mRNA levels in DHCP-treated vs control cells. Format: cell-based. The settings on record: DHCP 250 μM, 8 h. The method, then: FIG. 1 are gels showing the effect of DHCP on the levels of mRNAs. Total RNA was extracted by the hot phenol method as described in the Materials and Methods section of Example 1, and primer extension analysis was carried out with oligonucleotides corresponding to osmY, dps, rpoS, katG, cysK, tehA, zipA, and ompF. Lanes 1 and 2 in each case represent mRNAs isolated from control (untreated) and DHCP treated cells, respectively.
E. coli wild-type strain JM83 [F^− araΔ(lac-proAB) rpsL(str^r)] (Yanisch-Perron et al., 1985) was grown in Luria broth (LB). V. harveyi strains BB152 and BB170 were a gift from Dr. Bonnie Bassler (Princeton University). These strains were grown in AB medium as described previously (Surette et al., 1999).
E. coli cells grown overnight in LB medium were diluted into fresh LB medium. After the growth reached a Klett unit of 50, DHCP was added (250 μM) and growth was further monitored. After growth reached a Klett unit of 90-100, it was diluted 10-fold into a medium containing the same concentration of DHCP as described previously (Phadtare et al., 2001). The cells were harvested after a total of 8 h of incubation with DHCP. […] The total RNA was extracted by the hot phenol method described previously (Sarmientos et al., 1983). It was further purified by RNeasy Minikit (Qiagen) and was then treated with DNase I followed by phenol-chloroform treatment and ethanol precipitation. It was quantified by measuring absorbance at 260 nm. The purity of RNA was confirmed by agarose gel electrophoresis.
The primers used for detection of the respective mRNAs were: Primer 750077, 5′-[…]-3′ (SEQ ID NO:1), that corresponds to the sequence from the 15th to the 8th codon of osmY (Yim et al., 1992); primer 750078, 5′-[…]-3′ (SEQ ID NO:2), that corresponds to the sequence from the 16th to the 9th codon of dps (Altuvia et al., 1994); Primer 979747, 5′-[…]-3′ (SEQ ID NO:3), that corresponds to the region from the 6th codon of rpoS (Takayanagi et al., 1994); primer 956660, 5′-AGT […]-3′ (SEQ ID NO:4), that corresponds to the region from 13th to the 6th codon of katG (Triggs-Raine et al., 1998); primer 3969805, 5′-[…]-3′ (SEQ ID NO:5), that corresponds to the region from 20th to the 13th codon of cysK (Byrne et al., 1988); primer 3969806, 5′-[…]-3′ (SEQ ID NO:6), that corresponds to the region from 13th to the 6th codoh of tehA (Walter et al., 1991); primer 3969807, 5′[…]-3′ (SEQ ID NO:7), that corresponds to the region from 10th to the 3rd codon of zipA (Hale et al., 1997); and primer 7018 5′-[…]-3′ (SEQ ID NO:8), that includes the region encompassing from the first codon of ompF (accession numbers, J01655, M10311 and M10312). The primers were labeled with [γ-^32P] ATP (Du-Pont-New England Nuclear] by using T4 polynucleotide kinase (Gibco BRL). Primer extension was carried out with 5 μg of RNA at 42° C. for 1 h in a final reaction volume of 10 μl, with 50 mM Tris-HCl (pH 8.5), 8 mM MgCl2, 30 mM KCl, 1 mM dithiothreitol, 0.4 pmol of ^32P-labeled primer, 0.5 mM each of the dNTPs, 10 U RNase inhibitor (Boehringer Mannheim) and 6.25 U of reverse transcriptase (Boehringer Mannheim). The products were analyzed on a 6% polyacrylamide gel under denaturing conditions. Quantitation of primer extension products was carried out by direct radioactive measurements.

The subject of assay [2] is AI-2 activity, V. harveyi reporter strain BB170. Particulars: Schauder et al., 2001; cited from earlier work.

Take `O=C1C=CC(O)C1O` (stereo not drawn) [DHCP, 4,5-dihydroxy-2-cyclopenten-1-one]: the “Primer extension: ratio of mRNA level DHCP-treated to control” value in assay [1] (gene cysK) came out at 18.00; in assay [1] (gene dps), 12.00; in assay [1] (gene katG), 9.00; in assay [1] (gene ompF), 0.06; in assay [1] (gene osmY), 15.00; in assay [1] (gene rpoS), 4.00. Further, the “Primer extension: ratio of mRNA level DHCP-treated to control” value in assay [1] (gene tehA) and in assay [1] (gene zipA) was 5.00 in each case. Besides, the “Activity as AI-2 candidate in the screening assay” value in assay [2] was “did not show any activity”.
